Reference: PMC3357308 (Diabetes, 2012)

Columns and labels:
[1] = test system: 11β-reductase and 11β-dehydrogenase activities; test: Cortisol/cortisone interconversion in subcutaneous adipose and skeletal muscle; assay type: in vivo, human; conditions: arteriovenous difference adjusted for blood flow, n = 6; for Ra (net Ra for cortisone), skeletal muscle release: forearm
[2] = test system: 11βHSD1; conditions: in vivo, d4-cortisol tracer; cited from earlier work
[3] = biological target: T1, human 11βHSD1 (Homo sapiens, UniProt P28845); test: Competition with [3H]2-cortisone in HEK293/h11βHSD1 cells; assay type: cell-based; conditions: [3H]2-cortisone 5 nmol/L, competitor 0–4,955 nmol/L, 6–24 h
[4] = biological target: T1, human 11βHSD1; assay type: cell-based; conditions: HEK293/h11βHSD1 cells, substrate 2 μmol/L, 1–24 h, n = 6
[5] = In vivo pharmacokinetics of d2-cortisone after intravenous bolus; parameters: species or system human; conditions: iv bolus 141 μg
[6] = test system: 11β-reductase and 11β-dehydrogenase activities; test: Cortisol/cortisone interconversion in the splanchnic circulation; assay type: in vivo, human; conditions: adjusted for hepatic blood flow, n = 4
[7] = test system: 11β-dehydrogenase; conditions: extrapolated from generation of d3-cortisone, non–steady-state, adjusted for substrate concentration and volume of distribution; cited from earlier work
[8] = test system: 11β-dehydrogenase; test: Primed 3-h d2-cortisone infusion before and after licorice; conditions: without licorice, whole body, steady state, n = 3

T1 sequence (P28845 whole entry): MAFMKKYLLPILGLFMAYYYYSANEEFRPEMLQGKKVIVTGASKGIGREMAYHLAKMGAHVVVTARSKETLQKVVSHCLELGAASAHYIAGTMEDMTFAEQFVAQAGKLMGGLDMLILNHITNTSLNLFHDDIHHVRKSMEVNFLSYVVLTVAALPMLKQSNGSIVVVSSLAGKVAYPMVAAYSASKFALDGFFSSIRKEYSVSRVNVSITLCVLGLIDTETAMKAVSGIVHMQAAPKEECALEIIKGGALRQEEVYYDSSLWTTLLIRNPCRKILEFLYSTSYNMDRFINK

[2H]C1([2H])[C@H](O)[C@@]2([2H])[C@@H](CCC3=CC(=O)CC[C@@]32C)[C@@H]2CC[C@](O)(C(=O)CO)[C@]21C [d3-cortisol]
Ra (net Ra for cortisone), skeletal muscle release [1]: 5.9 ± 1.8 pmol/100 mL/min

C[C@]12CCC(=O)C=C1CC[C@@H]1[C@@H]2[C@@H](O)C[C@@]2(C)[C@H]1CC[C@]2(O)C(=O)CO [cortisol]
cortisol released by subcutaneous adipose 11βHSD1 [2]: ~15 pmol/100 g tissue/min | Ra (net Ra for cortisone), skeletal muscle release [1]: 19.7 ± 4.1 pmol/100 mL/min

[2H]C1C(=O)C=C2CC[C@H]3[C@@H]4CC[C@](O)(C(=O)CO)[C@@]4(C)CC(=O)[C@@H]3[C@@]2(C)C1[2H] (some centres unmarked) [d2-cortisone, 1,2-[^2H]2-Cortisone]
Vmax for formation of [3H]2-cortisol in the presence of the steroid [3]: 0.83 ± 0.34 pmol/10^5 cells/min | production of d2-cortisol or cortisol from the substrate [4]: 0.17 ± 0.05 pmol/10^5 cells/min | time tracer could be detected after injection ([5]; blood): 1.5 h | area under the curve ([5]; n = 3): 494 nmol/L per min

C[C@]12CCC(=O)C=C1CC[C@@H]1[C@@H]2C(=O)C[C@@]2(C)[C@H]1CC[C@]2(O)C(=O)CO [cortisone]
Ra (net Ra for cortisone), splanchnic release [6]: 19.5 ± 2.8 nmol/min | cortisone production rate [7]: 24 nmol/min | Vmax for formation of [3H]2-cortisol in the presence of the steroid [3]: 0.73 ± 0.26 pmol/10^5 cells/min | Ra (net Ra for cortisone), subcutaneous adipose release [1]: 38.7 ± 5.8 pmol/100 g/min | Ra (net Ra for cortisone), skeletal muscle release [1]: 15.2 ± 5.8 pmol/100 mL/min | Net Ra of cortisone [8]: 36 nmol/min | production of d2-cortisol or cortisol from the substrate [4]: 0.41 ± 0.15 pmol/10^5 cells/min
